Earlier results in PMC5040077 (The Korean Journal of Parasitology, 2016).

Legend:
[1] = tested on: Leishmania chagasi promastigotes
[2] = tested on: Trypanosoma cruzi trypomastigotes
HL-60 = conditions: cancer cell line HL-60
SF-295 = conditions: cancer cell line SF-295
MDA-MB-435 = conditions: cancer cell line MDA-MB-435
HCT-8 = conditions: cancer cell line HCT-8

| SMILES | biological activity against Leishmania chagasi promastigotes [1] | activity against Trypanosoma cruzi trypomastigotes [2] | cytotoxicity against HL-60 (HL-60) | cytotoxicity against SF-295 (SF-295) | cytotoxicity against MDA-MB-435 (MDA-MB-435) | cytotoxicity against HCT-8 (HCT-8) |
| --- | --- | --- | --- | --- | --- | --- |
| C[C@]12CC[C@H](O)C[C@@]1(O)CC[C@@H]1[C@@H]2CC[C@]2(C)[C@@H](c3ccc(=O)oc3)CC[C@]12O [compound 1, telocinobufagin] | biological activity | only hellebrigenin was active | low cytotoxicity | low cytotoxicity | low cytotoxicity | low cytotoxicity |
| C[C@]12CC[C@H]3[C@@H](CC[C@]4(O)C[C@@H](O)CC[C@]34C=O)[C@@]1(O)CC[C@@H]2c1ccc(=O)oc1 [hellebrigenin, reference compound] | biological activity | active | – | – | – | – |
